According to patent publication EP2229935A1, “Peptide derivatives or pharmaceutically acceptable salts thereof, method for producing the same, use of said derivatives and pharmaceutical composition” (Nebolsin, Vladimir Evgenievich, priority 1997, dated 1999):
Marks after values point to notes of the source that are not given here.

Tests used:
[1] = system: peripheral blood neutrophils; assay: Activity of peripheral blood neutrophils in mice with LLC; assay type: in vivo, C57BL/6 female mice; conditions: Cyclophosphane 5 times 20.0 mg/kg (in 48 hours) for 10 days
Procedure: Experiments were carried out on C57BL/6 female mice with intramuscularly transplanted LLC carcinoma. Activity of neutrophils was measured by days 11 and 14.
• control - animals with LLC tumor, 10 animals; • animals with LLC tumor + compound III at a dose 500.0 µg/kg for 10 days. 8 animals; • animals with LLC tumor + Cyclophosphane 5 times at a dose 20.0 mg/kg (in 48 hours) for 10 days, 8 animals; • compound III and Cyclophosphane according to the above dosage regimen, 8 animals.
Experiment duration was 14 days.

[2] = system: Lewis pulmonary carcinoma (LLC); assay: LLC metastasizing with surgical resection of the primary tumor node, alone and with Cyclophosphane; assay type: in vivo, C57BL/6 female mice; conditions: 96 hour interval, 100 µg/kg
Procedure: An important property of the compounds is their ability to manifest pharmacological activity on the model with resection of the primary tumor node and not to lower therapeutic efficacy of respective antitumor drugs. […] Surgical resection of the primary tumor node was performed by day 13 following tumor transplantation. The test anitumor compounds were administered according to two dosage regimens:
Dosage regimen 1 - animals were administered compound III from day 1 till day 13 of experiment at a dose 500 µg/kg (group 1); Cyclophosphane was administered intraperitoneally two times before operation with 96 hour interval at a dose 100 µg/kg (group 2); combined administration of compound III and Cyclophosphane was similar to administration of substances in groups 1 and 2 (group 3). Number of metastases was calculated by day 29 of experiment;
Dosage regimen 2 - animals were administered compound III from day 14 of experiment (commencement of administration 24 hours post operation) till day 28 (group 4); Cyclophosphane was administered twice post operation with 96 hour interval at a dose 100 µg/kg (group 5); combined administration of compound III and Cyclophosphane similar to administration of substances in groups 4 and 5 (group 6). Antimetastatic efficacy of the drugs was considered by day 29 of experiment.

[3] = system: mongrel male mice; assay: Passive cutaneous anaphylaxis reaction; assay type: in vivo; conditions: PCA, oral 3 days, 10 µg/kg
Procedure: Experiments were carried out on mongrel male mice with initial body mass 22-24 g. Each group included 10 animals. Sensibilization of animals was accomplished by intradermal injection of 20-30 µl of the serum of mice obtained from preliminaryly immunized animals comprising reagent antibodies against chicken ovalbumin (OVA). […] In 48 hours after sensibilzation an anaphylaxis-provoking OVA dose (1 mg and 0,2 ml Evans blue in 0.2 ml normal saline) were intravenously injected to mice. Passive cutaneous anaphylaxis reaction intensity (PCA) was determined in 30 minutes by the size (area) of a blue spot on the internal skin surface in the site of reagent anibodies' administration. Spot size was measured in two mutually perpendicular directions and the result was expressed in mm^2.

[4] = system: peritoneal mast cells; assay: Histamine secretion by peritoneal mast cells of sensitized rats; assay type: in vivo, Wistar male rats; conditions: intraperitoneal 3 days; for Stimulated secretion, percent: OVA-stimulated
Procedure: Effects on histamine release. […] 2 ml of cellular suspension containing 0.1-0.2 x 10^6 MC/ml were incubated in the presence of […] OVA. Histamine secretion was expressed in percent to its total level. Histamine amount in samples was determined using spectrofluorimetric method [Short P.A., Burkhalter A., Cohn V.N. A method for fluorimetric assay of histamine in tissues. J. Pharmacol. Exper.
Animals of the control group were intraperitonelly injected normal saline (group 1). Each group included 10 animals.

[5] = system: hydroxyl radical; assay: Hydroxyl radical formation in the Fenton reagent (chemiluminescence); assay type: biochemical
[6] = system: mongrel guinea-pigs; assay: Food anaphylaxis (active anaphylactic shock) in OVA-sensitized guinea pigs; conditions: oral 3 days before provoking anaphylaxis, 50 µg/kg
[7] = system: mongrel male mice; assay: Average lifetime of mice in a closed volume (hypoxia); assay type: in vivo; conditions: without preliminary hypoxia, oral 2 hours before hypoxia, 300 mg/kg
Procedure: (§1) The tests of determining average lifetime of animals in a closed volume and on the model of acute hypobaric hypoxia at the minimum atmospheric rarefaction (170-185 mm Hg) were used to study antihypoxic activity of the compunds of general formula (I).
Mice were one by one placed into sealed glass jars and their lifetime was recorded.
The experiment was carried out on 90 mongrel male mice having initial body mass 20 ± 0,5 g housed in cages by 10 animals and given a standard vivarium ration. Average lifetime of mice in closed vessels having volume 250 ml was preliminarily determined and it was 22 to 25 minutes. All the groups included 10 animals each.
Experimental protocol: • a) - preliminary hypoxia for 12 minutes; • b) - first administration of a compound immediately following preliminary hypoxia; • c) - second administration of a compound in 24 hours after the first one, then daily for three days; • d) - recording lifetime of animals under hypoxic conditions in a sealed space 2 hours after the last administration of a compound.
The test compounds were dissolved in distilled water and orally administered to animals for 5 days.
Experimental groups: • Group 1 -(control) - without preliminary hipoxia with oral administration of distilled water for 5 days; • Groups 2 and 3 - administration of the compound XLIV using two doses 50 and 500 µg respectively; • Group 4 - oral administration of sodium oxybutyrate at a dose […] 2 hours before hypoxia; • Group 5 -(control)- with preliminary hypoxia for 12 minutes with subsequent administration of distilled water for 5 days; • Groups 6 and 7 - administration of the compound XLIV using two doses 50 and 500 µg respectively; • Groups 8 and 9 - administration of the compound III using two doses 50 and 500 µg respectively.

[8] = system: mongrel mice; assay: Acute hypobaric hypoxia model (AHBH); assay type: in vivo; conditions: single administration, 300,000 µg/kg
Procedure: as §1
Simulation of AHBH was done in a flow-through chamber at temperature 22°C. Experiments were carried out on mongrel mice with initial body mass 20 g at the minimum rarefaction 170-185 mm Hg, that corresponds to the altitude of 10500-11000 m. Lift rate was 35 m/second. Each group included 15 animals. Compounds were administered orally, lift on to altitude was performed 2 hours after the last administration.
Groups of animals: • Group 1 - intact control -administration of normal saline four times. • Groups 2 and 3 - administration of the compound III at doses 50 and 500 µg/kg for 4 days. • Group 4 - single administration of sodium oxybutyrate at a dose […].

[9] = regimen 1: intraperitoneally two times before operation
[10] = regimen 2: twice post operation

O=P1(N(CCCl)CCCl)NCCCO1 (stereo not shown) [Cyclophosphane, reference compound]
Percent of active neutrophils ([1]; Background): 21.5 ± 3.4%
Percent of active neutrophils ([1]; day 11): 7.6 ± 2.0%
Percent of active neutrophils ([1]; day 14): 20.6 ± 6.0%
Mean number of metastases [2, 9]: 19.5 ± 5.1
Metastasizing inhibition percent [2, 9]: 43.9%
Metastasizing rate (%) [2, 9]: 100%
Mean number of metastases [2, 10]: 18.0 ± 4.3
Metastasizing inhibition percent [2, 10]: 51.5%
Metastasizing rate (%) [2, 10]: 100%

CN(C)CCN(Cc1ccc(Cl)cc1)c1ccccn1 [Suprastine, reference compound]
Percent of the reaction inhibition [3]: 7.6%
Reaction intensity, mm^2 [3]: 82.1 ± 18.1 mm^2
Stimulated secretion, percent ([4]; 1000 µg/kg): 7.02%
Histamine level, µg/10^6 MC ([4]; 1000 µg/kg): 16.24*^1 µg/10^6 MC
Spontaneous secretion, percent ([4]; 1000 µg/kg): 5.62%

N[C@H](CCC(=O)NCCc1c[nH]cn1)C(=O)O [compound XLV, γ -L-, D-glutamylhistamine]
Stimulated secretion, percent ([4]; 50 µg/kg): 2.32*^1,3%
Histamine level, µg/10^6 MC ([4]; 50 µg/kg): 16.90*^1 µg/10^6 MC
Spontaneous secretion, percent ([4]; 50 µg/kg): 9.63*^1,3%
relative effect: I+/I- ([5]; 1 µM): 1.0
Chemiluminiscence intensity (mV) + σn-1 ([5]; 1 µM, control of the series as in the table): 7666 ± 101 mV
relative effect: I+/I- ([5]; 0.01 mM): 0.95
Chemiluminiscence intensity (mV) + σn-1 ([5]; 0.01 mM, control of the series as in the table): 7443 ± 267 mV
relative effect: I+/I- ([5]; 0.1 mM): 0.74
Chemiluminiscence intensity (mV) + σn-1 ([5]; 0.1 mM, control of the series as in the table): 5800 ± 247 mV
relative effect: I+/I- ([5]; 1 mM): 0.16
Chemiluminiscence intensity (mV) + σn-1 ([5]; 1 mM, control of the series 7839 ± 171, 1120 ± 163, 4974 ± 283 or 1332 ± 172): 2195 ± 18 mV
Anaphylactic index [6]: 0.90*
Lethality in percent [6]: 6.7** percent
Seizures in percent [6]: 15.5* percent

O=C(O)CCCO [sodium oxybutyrate, reference compound]
Lifetime (seconds) [7]: 2103,9±100,5**^1 seconds
Effect in percent ([8]; lifetime relative to control): 119 ± 4,4%
Lifetime under hypoxic conditions (minutes) ([8]; mice, 170-185 mm Hg): 364,3 ± 13,5 minutes
